# Tested on: reprogramming resistant regions (RRRs) / ZGA genes
# Experiment: RNA-seq of late 8-cell human SCNT embryos with or without KDM4A mRNA injection (ZGA of RRRs, KDM4A-responsive genes)
# Assay type: cell-based
# Text: A sliding window (size 20 kb, step size 10 kb) was used to assess the genome-wide expression level of 4-cell and 8-cell human embryos. For each window, the expression level was quantified with normalized RPM (reads per millions of uniquely mapped reads). […] These activated regions were classed into three groups based on their expression differences in human SCNT and IVF 8-cell embryos.
# The SCNT embryos used for ZGA analysis were generated using oocytes donated by a single healthy person (#64) and dermal fibroblast cells from an AMD patient (DFB-8). SCNT and IVF embryos were cultured up to late 8-cell stage, when the compaction of blastomeres is initiated, then they were treated briefly with acid Tyrode solution to remove zona pellucida. To prepare for the 8-cell SCNT embryo, oocytes from a single oocyte donor, and skin fibroblast cells from a single somatic nuclear donor were used. All the procedures are the same as described in the “Human SCNT procedure and KMD4A mRNA injection” section. Only embryos that reached the late 8-cell stage synchronically 74 hours post activation were collected and used for this experiment.
# For preparation of the control IVF embryos, several donated early 8-cell stage IVF embryos were thawed and cultured for 5-7 hours to allow them to reach late 8-cell stage before being processed. After removal of the zona pellucida, the denuded embryos were washed 3 times in PBS, loaded into RNAse and DNAse free PCR tubes, spin downed, and snap frozen in liquid nitrogen. Then, they were kept at −80° C. until use. As controls, dermal fibroblast cells of somatic nuclear donors were also prepared. Those fibroblast cells were cultured in a 25 cm^2 flask in DMEM 10% FBS, and approximately 10,000 cells/donor were collected, snap frozen, and stored at −80° C. until use.
# Five 8-cell embryos for each group were directly lysed and used for cDNA synthesis using SMART-Seq v4 Ultra Low Input RNA Kit (Clontech). For MEF donor, 10 ng total RNA was used for cDNA synthesis using SMART-Seq v4 Ultra Low Input RNA Kit. After amplification, the cDNA samples were fragmented using Covaris sonicator M220 to an average size of 150 bp (Covaris). Sequencing libraries were made with the fragmented DNA using NEBNext Ultra DNA Library Prep Kit for Illumina according to manufacturer's instruction (New England Biolabs) with different barcodes. For each RNA-seq analysis of hESCs, 1 μg total RNA was used for mRNA purification. Barcoded RNA-seq libraries were generated using NEBNext Ultra Directional RNA Library Prep Kit for Illumina (New England Biolabs). Single end 50 bp sequencing was performed on a HiSeq 2500 sequencer (Illumina). Sequencing reads were mapped to the human genome (hg19) with Tophat2. All programs were performed with default settings (unless otherwise specified). At least 22 million uniquely mapped reads were obtained for each sequencing library, and subsequently assembled into transcripts guided by the reference annotation (Refseq gene models) with Cufflinks v2.0.2. Expression level of each gene was quantified with normalized FPKM (fragments per kilobase of exon per million mapped fragments). Statistical analyses were performed with R (available at: “www.r-project.org/”). Independent 2 group Wilcoxon rank sum tests were used to compare distributions using the wilcox.test function in R. Pearson's r coefficient was calculated using the cor function with default parameters. The hierarchical clustering analysis of the global gene expression pattern in different samples was carried out using heatmap.2 function (gplots package) in R.
substance,measurement,setting,value
"KDM4A mRNA: in vitro transcribed mRNA of full length human KDM4A/JHDM3A cDNA, an H3K9me3 demethylase (SEQ ID NO: 1)",ZNF826P Fold Change (log2) [KDM4A SCNT/Control SCNT],8-cell embryos,2.67 log2
same,ZNHIT6 Fold Change (log2) [KDM4A SCNT/Control SCNT],8-cell embryos,1.58 log2
same,12-Sep Expression level (FPKM),KDM4A SCNT 8-cell embryos,0.3 FPKM
same,AASDH Expression level (FPKM),KDM4A SCNT 8-cell embryos,2.84 FPKM
same,ACBD5 Expression level (FPKM),KDM4A SCNT 8-cell embryos,1.62 FPKM
same,ALG5 Expression level (FPKM),KDM4A SCNT 8-cell embryos,9.71 FPKM
same,ALPPL2 Expression level (FPKM),KDM4A SCNT 8-cell embryos,3.65 FPKM
same,APOC1P1 Expression level (FPKM),KDM4A SCNT 8-cell embryos,0.43 FPKM
same,ATP5J2-PTCD1 Expression level (FPKM),KDM4A SCNT 8-cell embryos,4.51 FPKM
same,BEX2 Expression level (FPKM),KDM4A SCNT 8-cell embryos,2.68 FPKM
same,BLVRB Expression level (FPKM),KDM4A SCNT 8-cell embryos,2.11 FPKM
same,BTAF1 Expression level (FPKM),KDM4A SCNT 8-cell embryos,1.46 FPKM
same,BTK Expression level (FPKM),KDM4A SCNT 8-cell embryos,1.67 FPKM
same,BUD31 Expression level (FPKM),KDM4A SCNT 8-cell embryos,76.07 FPKM
same,C1D Expression level (FPKM),KDM4A SCNT 8-cell embryos,97 FPKM
same,C2orf74 Expression level (FPKM),KDM4A SCNT 8-cell embryos,0.41 FPKM
same,C11orf67 Expression level (FPKM),KDM4A SCNT 8-cell embryos,28.21 FPKM
same,C12orf60 Expression level (FPKM),KDM4A SCNT 8-cell embryos,46.22 FPKM
same,C16orf91 Expression level (FPKM),KDM4A SCNT 8-cell embryos,9.96 FPKM
same,C17orf89 Expression level (FPKM),KDM4A SCNT 8-cell embryos,0.75 FPKM
same,C18orf56 Expression level (FPKM),KDM4A SCNT 8-cell embryos,0.33 FPKM
same,C20orf7 Expression level (FPKM),KDM4A SCNT 8-cell embryos,2.28 FPKM
same,CAB39L Expression level (FPKM),KDM4A SCNT 8-cell embryos,4.06 FPKM
same,CCAR1 Expression level (FPKM),KDM4A SCNT 8-cell embryos,4.62 FPKM
same,CCDC86 Expression level (FPKM),KDM4A SCNT 8-cell embryos,2.88 FPKM
same,CCL2 Expression level (FPKM),KDM4A SCNT 8-cell embryos,6.1 FPKM
same,CCL15 Expression level (FPKM),KDM4A SCNT 8-cell embryos,0.89 FPKM
same,CELA3B Expression level (FPKM),KDM4A SCNT 8-cell embryos,0.49 FPKM
same,CENPC1 Expression level (FPKM),KDM4A SCNT 8-cell embryos,7.41 FPKM
same,CLC Expression level (FPKM),KDM4A SCNT 8-cell embryos,13.82 FPKM
same,CLDN6 Expression level (FPKM),KDM4A SCNT 8-cell embryos,3.54 FPKM
same,CLK4 Expression level (FPKM),KDM4A SCNT 8-cell embryos,19.9 FPKM
same,CNKSR3 Expression level (FPKM),KDM4A SCNT 8-cell embryos,0.29 FPKM
same,CNPY4 Expression level (FPKM),KDM4A SCNT 8-cell embryos,5.19 FPKM
same,COX7B2 Expression level (FPKM),KDM4A SCNT 8-cell embryos,0.79 FPKM
same,COX17 Expression level (FPKM),KDM4A SCNT 8-cell embryos,26.62 FPKM
same,CSAG1 Expression level (FPKM),KDM4A SCNT 8-cell embryos,2.22 FPKM
same,CSTF3 Expression level (FPKM),KDM4A SCNT 8-cell embryos,28.96 FPKM
same,CUL2 Expression level (FPKM),KDM4A SCNT 8-cell embryos,14.32 FPKM
same,CXorf61 Expression level (FPKM),KDM4A SCNT 8-cell embryos,0.85 FPKM
same,DDX26B Expression level (FPKM),KDM4A SCNT 8-cell embryos,1.77 FPKM
same,DEFB122 Expression level (FPKM),KDM4A SCNT 8-cell embryos,0.61 FPKM
same,DLEU7 Expression level (FPKM),KDM4A SCNT 8-cell embryos,2.91 FPKM
same,DNASE2 Expression level (FPKM),KDM4A SCNT 8-cell embryos,0.61 FPKM
same,DRAM1 Expression level (FPKM),KDM4A SCNT 8-cell embryos,0.63 FPKM
same,ECE2 Expression level (FPKM),KDM4A SCNT 8-cell embryos,1.18 FPKM
same,EIF1AD Expression level (FPKM),KDM4A SCNT 8-cell embryos,9.43 FPKM
same,ELL2 Expression level (FPKM),KDM4A SCNT 8-cell embryos,1.39 FPKM
same,FAM9A Expression level (FPKM),KDM4A SCNT 8-cell embryos,1.32 FPKM
same,FAM19A3 Expression level (FPKM),KDM4A SCNT 8-cell embryos,1.7 FPKM
same,FAM83D Expression level (FPKM),KDM4A SCNT 8-cell embryos,2.53 FPKM
same,FAM133B Expression level (FPKM),KDM4A SCNT 8-cell embryos,6.06 FPKM
same,FAM151A Expression level (FPKM),KDM4A SCNT 8-cell embryos,1.01 FPKM
same,FAM162A Expression level (FPKM),KDM4A SCNT 8-cell embryos,19.35 FPKM
same,FAM200A Expression level (FPKM),KDM4A SCNT 8-cell embryos,1.23 FPKM
same,FASTKD5 Expression level (FPKM),KDM4A SCNT 8-cell embryos,4.41 FPKM
same,FBXL12 Expression level (FPKM),KDM4A SCNT 8-cell embryos,1.8 FPKM
same,FMR1NB Expression level (FPKM),KDM4A SCNT 8-cell embryos,0.18 FPKM
same,FOXN2 Expression level (FPKM),KDM4A SCNT 8-cell embryos,5.53 FPKM
same,GALM Expression level (FPKM),KDM4A SCNT 8-cell embryos,3.67 FPKM
same,GIP Expression level (FPKM),KDM4A SCNT 8-cell embryos,12.94 FPKM
same,GJA1 Expression level (FPKM),KDM4A SCNT 8-cell embryos,1.64 FPKM
same,GOLGB1 Expression level (FPKM),KDM4A SCNT 8-cell embryos,1.36 FPKM
same,GUCA1B Expression level (FPKM),KDM4A SCNT 8-cell embryos,0.83 FPKM
same,GUSBP1 Expression level (FPKM),KDM4A SCNT 8-cell embryos,7.96 FPKM
same,GUSBP4 Expression level (FPKM),KDM4A SCNT 8-cell embryos,2.42 FPKM
same,H3F3A Expression level (FPKM),KDM4A SCNT 8-cell embryos,14.47 FPKM
same,IFI30 Expression level (FPKM),KDM4A SCNT 8-cell embryos,25.62 FPKM
same,IL13RA2 Expression level (FPKM),KDM4A SCNT 8-cell embryos,0.26 FPKM
same,KHDC1 Expression level (FPKM),KDM4A SCNT 8-cell embryos,85.25 FPKM
same,KHDC1L Expression level (FPKM),KDM4A SCNT 8-cell embryos,668.53 FPKM
same,KITLG Expression level (FPKM),KDM4A SCNT 8-cell embryos,0.93 FPKM
same,KLF17 Expression level (FPKM),KDM4A SCNT 8-cell embryos,8.4 FPKM
same,KLK4 Expression level (FPKM),KDM4A SCNT 8-cell embryos,1.41 FPKM
same,KLK11 Expression level (FPKM),KDM4A SCNT 8-cell embryos,7.07 FPKM
same,KPTN Expression level (FPKM),KDM4A SCNT 8-cell embryos,6.84 FPKM
same,LARP6 Expression level (FPKM),KDM4A SCNT 8-cell embryos,0.41 FPKM
same,LEMD3 Expression level (FPKM),KDM4A SCNT 8-cell embryos,0.59 FPKM
same,LIM2 Expression level (FPKM),KDM4A SCNT 8-cell embryos,2.01 FPKM
same,LINC00263 Expression level (FPKM),KDM4A SCNT 8-cell embryos,3.81 FPKM
same,LOC284408 Expression level (FPKM),KDM4A SCNT 8-cell embryos,1.36 FPKM
same,LOC347411 Expression level (FPKM),KDM4A SCNT 8-cell embryos,1.62 FPKM
same,LOC401397 Expression level (FPKM),KDM4A SCNT 8-cell embryos,11.19 FPKM
same,LOC643955 Expression level (FPKM),KDM4A SCNT 8-cell embryos,3.18 FPKM
same,LOC653513 Expression level (FPKM),KDM4A SCNT 8-cell embryos,1.03 FPKM
same,LOC723809 Expression level (FPKM),KDM4A SCNT 8-cell embryos,3.84 FPKM
same,LOC100129515 Expression level (FPKM),KDM4A SCNT 8-cell embryos,9.35 FPKM
same,LOC100289211 Expression level (FPKM),KDM4A SCNT 8-cell embryos,8.18 FPKM
same,LOC100505854 Expression level (FPKM),KDM4A SCNT 8-cell embryos,4.77 FPKM
same,LOC100506305 Expression level (FPKM),KDM4A SCNT 8-cell embryos,0.91 FPKM
same,LOC100506668 Expression level (FPKM),KDM4A SCNT 8-cell embryos,8.79 FPKM
same,LUC7L Expression level (FPKM),KDM4A SCNT 8-cell embryos,2.91 FPKM
same,M1 Expression level (FPKM),KDM4A SCNT 8-cell embryos,2.52 FPKM
same,MAGEA12 Expression level (FPKM),KDM4A SCNT 8-cell embryos,0.25 FPKM
same,MAGEB2 Expression level (FPKM),KDM4A SCNT 8-cell embryos,0.79 FPKM
same,MATR3 Expression level (FPKM),KDM4A SCNT 8-cell embryos,9.43 FPKM
same,MED31 Expression level (FPKM),KDM4A SCNT 8-cell embryos,27.22 FPKM
same,MFSD11 Expression level (FPKM),KDM4A SCNT 8-cell embryos,7.94 FPKM
same,MPV17L2 Expression level (FPKM),KDM4A SCNT 8-cell embryos,4.48 FPKM
same,MRPL28 Expression level (FPKM),KDM4A SCNT 8-cell embryos,1.56 FPKM
same,MTERF Expression level (FPKM),KDM4A SCNT 8-cell embryos,3.15 FPKM
same,NANOGNB Expression level (FPKM),KDM4A SCNT 8-cell embryos,30.92 FPKM
same,NDUFAF2 Expression level (FPKM),KDM4A SCNT 8-cell embryos,6.37 FPKM
same,NMNAT1 Expression level (FPKM),KDM4A SCNT 8-cell embryos,3.71 FPKM

# — patent US20180298405A1, “METHODS AND COMPOSITIONS TO INCREASE HUMAN SOMATIC CELL NUCLEAR TRANSFER (SCNT) EFFICIENCY BY REMOVING HISTONE H3-LYSINE TRIMETHYLATION, AND DERIVATION OF HUMAN NT-ESC” (CHILDREN'S MEDICAL CENTER CORPORATION, priority 2015, published 2018)
